From patent US11896678B2, “Compositions and methods for treatment of peroxisome proliferator-activated receptor gamma (PPARG) activated cancer” (THE BROAD INSTITUTE, INC., priority 2017, dated 2024)

Assays:
FABP4 expression = assay: Immunoblot of FABP4 in bladder cancer cell lines; format: cell-based, human; conditions: panel of bladder cancer cell lines
Method: Western Blot Analysis: Western blots were performed using standard protocols with semi-dry transfer Trans-Blot® SD (Bio-Rad Hercules, CA), Li-Cor Odyssey Blocking buffer, and imaging with LiCor Odyssey Imaging System (LI-COR Lincoln, NE). Briefly, cells were grown in 6-well plates and harvested using Complete Lysis-M with protease and phosphatase inhibitors (Roche Applied Science). Western blot analyses were performed using standard protocols with semi-dry transfer Trans-Blot SD (Bio-Rad), LI-COR Odyssey Blocking buffer, and imaging with LI-COR Odyssey Imaging System (LI-COR). The anti-PPARG C26H12, anti-PPARG 81B8, anti-FABP4 D25B3, and anti-CEACAM5 CB30 antibodies were obtained from Cell Signaling Technology. The anti-ACSL5 ab57210 and anti-HMCGS2 EPR8642 antibodies were obtained from Abcam. The anti-VCL (vinculin) V9264 antibody was obtained from Sigma-Aldrich. All primary antibodies were tested at 1:1,000 dilutions, with the exception of anti-VCL, which was tested at a 1:5,000 dilution. Secondary goat anti-mouse 926-68020, and goat-anti-rabbit 926-32211 antibodies were obtained from LI-COR Biosciences and used at 1:15,000 dilutions.

[1] = test system: PPARG target gene expression in UM-UC-9 cells; assay: RNA sequencing of UM-UC-9 cells after 7 days dosing; format: cell-based, human; conditions: 500 nmol/L
Method: Next, the effects of long-term dosing on the transcriptional profile of the PPARG-amplified cell line, UMUC-9, were evaluated. Briefly, UM-UC-9 cells were treated for 7 days with various PPARG modulators dosed at 500 nmol/L and gene expression was analyzed using RNA sequencing. […] Genes that were more abundantly expressed upon treatment with inverse-agonists included ALPP, SPINK4, and ALDH1A3 (FIG. 5). […] In summary, the in vitro pharmacological properties of known PPARG modulators have been characterized and two distinct chemotypes with bona-fide inverse-agonist activity in PPARG-activated bladder cancer cells were identified.
RNAseq analysis: RNA was isolated using RNEasy (Qiagen) and an RNAseq library was prepared using NEBNext Ultra Directional RNA Library Prep Kit for Illumina and NEBNext Multiplex Oligos for Illumina (New England BioLabs). RNAseq sequencing was performed using an Illumina MiSeq instrument according to the manufacturers protocol. Sequence data was analyzed using Firehose (Broad Institute, Cambridge MA) to map transcripts and calculate RPKM (SW780 cDNA expression) or TPM (UM-UC-9).
For UM-UC-9 RNAseq experiment, the resulting reads were used to calculate transcript abundance in units of TPM (transcripts per million) (18), which were then adjusted using TMM normalization (19) for comparison. […]

[2] = test system: PPARG-activated bladder cancer cell lines; assay: Proliferation assays in PPARG-activated bladder cancer cell lines; format: cell-based, human; conditions: 100 nM-500 nM
Method: A panel of bladder cancer cell lines with PPARG modulators in colony formation assays was then tested (FIG. 10), kinetic proliferation assays (IncuCyte Zoom; Essen Bioscience) using cell lines treated with a single concentration of compound (100 nM-500 nM), and end-point dose-response assays (CellTiter Glo or CyQuant).
This assay was expanded to include an additional 8 representative bladder cancer cell lines, including cell lines with PPARG amplification, RXRA p.S427F mutation, activated gene signature, and control cell lines with low level expression of PPARG and target genes. […] Representative data for the UM-UC-9 cell line are shown in FIG. 6B, and is tabulated for the tested bladder cancer cell lines in Table 1. […] This significant (P<0.01) preferential sensitivity to PPARG inverse-agonists, but not antagonists, is maintained across all of the PPARG-activated cell lines in the panel, including the RXRA p.S427F cell line, HT-1197 (41), the PPARG-amplified cell lines, 5637 and UM-UC-9, and the PPARG activation gene signature cell lines Cal29, UM-UC-1, and RT112/84 (FIG. 12). […] Similar results were obtained with these cell lines in parallel studies using clonogenic assays to quantify colony-forming ability (FIG. 10).
Proliferation Assays: To enable cell-counting experiments, cell lines were transduced with a lentiviral vector encoding nuclear-targeted GFP, TagGFP2-H2B (Evrogen), and stable pools generated following selection for puromycin resistance. Cell lines were maintained for at least 7 days following selection prior to expansion and seeding into 96- or 384-well plates for further analysis. For kinetic proliferation assays, 96-well plates (n 1% 4 per condition) were imaged and counted every two hours using IncuCyte Zoom (Essen BioScience). Media and compounds were replaced approximately every 3-4 days. For endpoint assays to measure dose-response, cells were plated in 384-well plates, dosed with compound, and upon reaching approximately 70% to 90% confluence in control wells, cells were either counted using fluorescence imaging (Incu-Cyte Zoom) or incubated with CyQuant (Thermo Fisher) at the indicated time and plates were read with a fluorescent plate reader.

[3] = molecular target: T1, PPARG ligand-binding domain - SMRT/NCOR2 corepressor peptide (Homo sapiens, UniProt P37231); assay: TR-FRET corepressor assay, SMRT/NCOR2 peptide; format: biochemical
T1 construct: purchased ThermoFisher Scientific
T1 sequence (P37231 238-503 limits assumed): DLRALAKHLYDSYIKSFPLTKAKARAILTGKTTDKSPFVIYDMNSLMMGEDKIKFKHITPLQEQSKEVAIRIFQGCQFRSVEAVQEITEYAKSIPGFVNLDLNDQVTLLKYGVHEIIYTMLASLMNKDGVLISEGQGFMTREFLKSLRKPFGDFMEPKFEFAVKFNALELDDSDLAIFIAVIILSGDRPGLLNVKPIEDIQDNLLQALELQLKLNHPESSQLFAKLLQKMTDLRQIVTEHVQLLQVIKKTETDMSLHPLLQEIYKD
Method: (§1) To evaluate inverse-agonism, a TR-FRET PPARG co-repressor assay (ThermoFisher) that measures recruitment of a fluorescent NCOR1 or NCOR2 corepressor peptide to the PPARG ligand-binding domain was used (ThermoFisher).
To determine effects on interactions between PPARG and coregulators, PPARG modulators were tested in two TR-FRET biochemical interaction assays for agonism and inverse-agonism. Agonism was quantitated using a coactivator assay, which measured the interaction between the PPARG ligand-binding domain and a fluorescently-labeled peptide from TRAP220/MED1. […] To evaluate inverse-agonism biochemically, ligand-dependent interactions were measured between PPARG ligand-binding domain and corepressor peptides from NCoR/NCOR1 and SMRT/NCOR2.

[4] = molecular target: T2, PPARG ligand-binding domain - NCoR/NCOR1 corepressor peptide (Homo sapiens, UniProt P37231); assay: TR-FRET corepressor assay, NCoR/NCOR1 peptide; format: biochemical; conditions: data not shown
T2 construct: purchased ThermoFisher Scientific
T2 sequence (P37231 238-503 limits assumed): T1 sequence (P37231 238-503 limits assumed)
Method: as §1
In addition to the PPARG-NCOR2 interaction assay described above, interactions between PPARG and a peptide from the corepressor NCOR1 were measured.

## O=C(Nc1ccccc1)c1cc([N+](=O)[O-])ccc1Cl [GW9662]
FABP4 expression
  expression of FABP4: not
[1]
  hierarchical clustering of gene expression signatures: cluster with vehicle-treated controls
[2]
  sensitivity of cell lines: not sensitive
[3]
  increase in signal: 1.7 fold
[4]
  induced signal: 2.5 fold
